We go through two compounds from US12458630B2, “Combination therapy for cancer” (The Regents of the University of California, priority 2020, dated 2025).

For one experiment, the system named is MIA PaCa-2 cells. The experiment can be described thus: Cell viability assay (CCK-8). As to conditions: for cell viability in NHE1-silenced cells: NHE1 KD MIA PaCa-2 cells. The experiment is classed as cell-based, human. How it is done: Cell viability assay. Cell viability was determined with Cell Counting Kit-8 assay (CCK-8 assay kit, Glpbio). Cells were plated in 96-well plates at a density of 3000 cells (MIA PaCa-2) or 1500 cells (KC6141) per well and incubated overnight prior to treatment. EIPA (10 μM), MRT68921 (600 nM) or erlotinib (2 μM, Sigma) were added to the wells for 72 and 96 hrs. Next, 10 μL of CCK-8 was added to each well. The optical density was read at 450 nm using a microplate reader (FilterMax F5, Molecular Devices, USA) at day 0, 1, 2, 3, and 4. For glutamine-deprivation assays, cells in 96-well plates were rinsed briefly in PBS and incubated in the 0.2 mM glutamine. Glutamine-free DMEM medium was supplemented with 0.2 mM glutamine in the presence of 10% dialysed FBS and 25 mM HEPES. For some conditions, the medium was supplemented with a final concentration of 2% BSA (Fraction V, fatty-acid-, nuclease and protease-free, Calbiochem). For all experiments, media were replaced every 24 hrs. Viable cell counts were obtained using CCK-8 assay described as above.
In some embodiments, cells were plated in 96-well plates coated with or without ECM at a density of 3000 cells (MIA PaCa-2, 1444, 1305, COLO 357/FG) or 1500 cells (KC6141) per well and incubated overnight prior to treatment. EIPA (10.5 μM), IPI549 (600 nM), MBQ-167 (500 nM), MRT68921 (600 nM) or erlotinib (2 μM, Sigma), ML385 (10 μM, Sigma), HCQ (10 μM or 80 μM) or their combinations were added to the wells for 24, 72 or 96 hrs. Next, 10 μL of CCK-8 was added to each well. The optical density was read at 450 nm using a microplate reader (FilterMax F5, Molecular Devices, USA) at day 0, 1, 2, 3, and 4. For glutamine-deprivation assays, cells in 96-well plates were rinsed briefly in PBS and incubated in the 0.2 mM glutamine. Glutamine-free DMEM medium was supplemented with 0.2 mM glutamine in the presence of 10% dialyzed FBS and 25 mM HEPES. For glucose-deprivation assays, cells in 96-well plates were rinsed briefly in PBS and incubated in the 0.5 mM glucose. Glucose-free DMEM medium was supplemented with 0.5 mM glucose in the presence of 10% dialyzed FBS and 25 mM HEPES. For some conditions, the medium was supplemented with a final concentration of 2% BSA (Fraction V, fatty-acid-, nuclease and protease-free, Calbiochem). For all experiments, media were replaced every 24 hrs. Viable cell counts were obtained using CCK-8 assay described as above.

In another experiment the test system is KC6141 cells. Description: Luminescence ATP detection assay. The format is cell-based, mouse. As to conditions: 0.5 mM glucose, 24 hrs; for cellular ATP: KC6141 cells on ECM, EIPA 10.5 μM, MBQ-167 500 nM, MRT68921 600 nM. Here is the method:
Extracellular Matrix (ECM) Preparation. Skin fibroblasts were seeded on 6/12/96-well plates. One day after plating, cells were switched into DMEM (with pyruvate) with 10% dialysed FBS supplemented with or without 500 μM ^3H-proline and 100 μM Vitamin C. Cells were cultured for 6 days with media renewal every 24 h. After six days, skin fibroblasts were removed by washing in 1 ml or 500 μl or 100 μl per well PBS with 0.5% (v/v) Triton X-100 and 20 mM NH4OH. ECM was washed five times with PBS before plating KC6141 cells. The following day, KC6141 cells were switched into the indicated medium for 24 or 72 hrs.
Luminescence ATP Detection Assay. Intracellular ATP level was determined with luminescence ATP detection assay system (PerkinElmer) according to manufacturer's protocol. Briefly, KC6141 cells were grown on 96-well plates coated with or without ECM in the presence of 100 μl 0.5 mM glucose medium with or without EIPA (10.5 μM), MBQ-167 (500 nM), MRT68921 (600 nM) or their combinations for 24 hrs. 50 μl mammalian cell lysis solution was added and shaken for 5 minutes. Next, 50 μl substrate solution was added and shaken for five minutes. Finally, plate was adapted in dark for 10 minutes and luminescence was measured.

“Also recorded” adds a separate entry of the source.

Consider `CCN(c1nc(N)c(C(=O)N=C(N)N)nc1Cl)C(C)C` [EIPA, 5-(N-ethyl-N-isopropyl) amiloride], for which the “sensitivity to single agent (cell viability)” value in the experiment on MIA PaCa-2 cells (ATG7^Δ or IKKα-deficient MIA PaCa-2 cells, 3 days) was “very sensitive”. For the same compound, the “sensitivity of IKKα- or ATG7-deficient cells to EIPA (CCK-8)” value in the experiment with MIA PaCa-2 cells (IKKα^Δ / ATG7^Δ vs WT MIA PaCa-2 cells (TP53 mutated), complete medium) is “much more sensitive; also recorded: highly sensitive”. Besides, the “cell viability in NHE1-silenced cells” value in the experiment with MIA PaCa-2 cells (3 days) was “EIPA-insensitive”. In addition, the “proliferation restored by albumin supplementation” value in the experiment on MIA PaCa-2 cells (WT and IKKα KO MIA PaCa-2 cells, 0.2 mM glutamine with albumin, 3 days) is given as “completely abrogated”. Besides, the “cell viability (total viable cells relative to day 0)” value with MIA PaCa-2 cells (WT and IKKα^Δ MIA PaCa-2 cells, complete medium, EIPA 10.5 μM) is “suppression of cell viability”. For the same compound, the “enhanced proliferation caused by loss of IKKα or ATG7” value in the experiment on MIA PaCa-2 cells (WT, IKKα KO, ATG7 KO MIA PaCa-2 cells, complete medium, EIPA 10 μM, days 0-4) is recorded as “abrogated”. Further, in the experiment on KC6141 cells, the “cellular ATP” value was “reduced”. Further, the “cellular ATP in p62/NRF2 ablated cells” value with KC6141 cells (p62 KD or Nrf2 KD KC6141 cells on ECM) is reported as “ineffective”.

In the case of `CN1CCc2cc(Nc3ncc(C4CC4)c(NCCCNC(=O)C4CCC4)n3)ccc2C1` [MRT68921], in the experiment with MIA PaCa-2 cells (3 days), the “cell viability in NHE1-silenced cells” value is reported as “severely compromised cell viability”. Moreover, in the experiment on KC6141 cells, the “cellular ATP” value was “further elevated”.
